Data as given in article PMC8100298, “Histone deacetylase inhibitor resminostat in combination with sorafenib counteracts platelet-mediated pro-tumoral effects in hepatocellular carcinoma” (Scientific Reports, 2021).
Like-named read-outs stand apart in the source and are kept apart here.

Key:
[1] = tested on: Class I HDAC1, 2, 3, and 8; class II b HDAC6 and 10; and class IV HDAC11; assay: In vitro HDAC activity assay; type: biochemical, human; conditions: in words, from IC50 calculation (Fig. S1A)
Description: In vitro HDAC inhibition assay
The half maximal HDAC-inhibitory concentrations (IC50) of resminostat w ere determined by
in vitro HDAC activity assays (Reaction Biology Corporation RBC, Pennsylvania, USA). For
the assay, resminostat was dissolved in DMSO and a dilution series with 10 concentrations
was used. The inhibitory activity of resminostat was tested on purified recombinant human
HDAC1-11. HDAC1-11 were produced using a baculovirus express ion system (human
HDAC1: cat# 50051, BPS, California, US; human HDAC2: cat# KDA-21-277, RBC,
Pennsylvania, USA; human HDAC3: cat# KDA -22-278, RBC, Pennsylvania, USA; human
HDAC4: cat# 50004 BPS, California, US; human HDAC5: cat# KDA-21-280, RBC, […]
activities of HDAC1 to 11 were assessed using acetylated AMC (7-amino-4-methycoumarin)-
labelled fluorogenic peptide substrates: fluorogenic peptide from p53 residues 379-382 (RHKK(Ac)AMC) for HDAC1, 2, 3, 6, 10, 11; fluorogenic HDAC Class IIa Substrate (Trifluoro acetyl Lysine, Ac-LGK(TFA)-AMC) for HDAC 4, 5, 7, 9; and fluorogenic peptide from p53 residues 379-382 (RHK(Ac)K(Ac)AMC) for HDAC8. […] In a second step, the deacetylated products were digested by the addition of developer for 1 h at 30°C to produce the fluorescent signal proportional to the amount of deacetylated substrates and the fluorescence was measured using an Envision plate reader at 355 nm (excitation) and 460 nm (emission). […]

[2] = tested on: PLC/PRF/5 and SNU-475 cells; assay: ELISA for growth factors PDGF-AA, TGF and VEGF; type: cell-based; conditions: tissue culture supernatants, with or without platelets (Fig. S4B)
Description: A. The growth factors PDGF-AA, TGFβ and VEGF were determined from tissue culture supernatants by ELISA. PLC/PRF/5 and SNU-475 cells were cultured with increasing […]
(1 picture or pasted object on this page, not shown here) […]
amounts of platelets. In parallel, platelets were cultured without cells to determine if the growth factors were platelet derived.
B. ELSIAs for PDGF-AA, TGFβ and VEGF were performed after drug treatment of PC/PRF/5 and SNU-475 cells. Cells were cultured as indicated with or without platelets and treated with resminostat, sorafenib, the drug combination or vehicle control 0.1% DMSO.
Table S1_ EC50 cell line screen
S1D. The cancer cell lines, their tissue origins and the respective EC50 values are shown.
Each cell line was seeded in duplicates.

MDAMB468 = assay: Efficacy screening assay; type: cell-based; conditions: MDAMB468, breast
Description: (§1) The experiment was performed by Oncolead GmbH & Co. KG (Karlsfeld , Germany), based on a standardized screening procedure . Cell lines were purchased directly from the ATCC, NCI and DSMZ cell line c ollections. Cells used for the study had undergone less than 20 passages. To ensure the absence of potential contamination and wrong assignment, all cell lines were tested using a whole genome assay (Agilent, USA). All cell lines were grown as recommended by the suppliers and with addition of 100 U/mL penicillin G and 100 µg/mL; streptomycin. Cell growth and treatments were performed in Nunclon D 96 -well plates (NUNC, Germany). The optimal seeding density for each cell line was determined to ensure exponential growth for the duration of the experiment. All cells growing without anti-cancer agents were sub-conﬂuent by the end of the treatment, as determined by visual inspection.
(§2) After an initial 24 h pre-growth period, the compounds were added. The vehicle concentration […]
(§3) was 0.1% DMSO. After incubation at 37°C for 72 h, the culture medium was aspirated, and the cells were precipitated by the addition of 10% trichloroacetic acid (Sigma-Aldrich, Missouri, US). After overnight incubation at 4°C, the plates were washed three times with deionized water. The precipitates were then stained with SRB (0.4% wt/v sulforhodamine B solution in 1% acetic acid, Sigma-Aldrich, Missouri, US). Afterwards, the plates were washed six times with 1% acetic acid to remove unbound stain. After drying the plates at room temperature, the bound SRB was solubilized with 10 mM Tris base and the optical density was measured at 520 nm using a Victor2 plate reader (Perkin Elmer, Germany). Blank OD values were subtracted from mean OD values for each concentration. The nonlinear curve ﬁtting and EC50 calculations were per formed using XLﬁt and algorithm “205” (ID Business […]
(§4) Multiplicity adjusted p-values with 95% confidence interval was applied. For the invasion assays in Figure 4, one-way ANOVA with multiple comparison testing (Tukey) was performed. Multiplicity adjusted p-values with 95% confidence interval was applied. The adjusted p-values comparing vehicle control without vs. with platelets and compound

MCF7 = assay: Efficacy screening assay; type: cell-based; conditions: MCF7, breast
Description: as §1, §2, §3, §4

MDAMB436 = assay: Efficacy screening assay; type: cell-based; conditions: MDAMB436, breast
Description: as §1, §2, §3, §4

MDAMB435 = assay: Efficacy screening assay; type: cell-based; conditions: MDAMB435, skin
Description: as §1, §2, §3, §4

IMR90 = assay: Efficacy screening assay; type: cell-based; conditions: Homo sapiens, IMR-90, IMR90, lung, 72 h
Description: as §1, §2, §3, §4

JIMT1 = assay: Efficacy screening assay; type: cell-based; conditions: JIMT1, breast
Description: as §1, §2, §3, §4

SKNAS = assay: Efficacy screening assay; type: cell-based; conditions: 72 h, brain
Description: as §1, §2, §3
(§5) For comparison of EC50 values in Figure 1F, one-way ANOVA with multiple comparison testing (Tukey) was performed. Multiplicity adjusted p -values for the EC50 with sorafenib versus resminostat for each cell line and comparison between cell lines for sorafenib are presented (95% confidence interval for significance testing). For comparison of EC50 data in Figure 2B, one-way ANOVA with multiple comparison testing (Tukey) was performed. Multiplicity adjusted p-values with 95% confidence interval was applied. For the invasion assays in Figure 4, one-way ANOVA with multiple comparison testing (Tukey) was performed. Multiplicity adjusted p-values with 95% confidence interval was applied. The adjusted p-values comparing vehicle control without vs. with platelets and compound

EFO21 = assay: Efficacy screening assay; type: cell-based; conditions: EFO21, ovary
Description: as §1, §2, §3, §5

HT29 = assay: Efficacy screening assay; type: cell-based; conditions: HT29, colon
Description: as §1, §2, §3, §5

SAOS2 = assay: Efficacy screening assay; type: cell-based; conditions: SAOS2, bone
Description: as §1, §2, §3, §5

HS729 = assay: Efficacy screening assay; type: cell-based; conditions: HS729, muscle, 72 h
Description: as §1, §2, §3, §5

[3] = log of EC50, negative, read-out: log(EC50) (converted)

Question: With CN(C)Cc1ccc(S(=O)(=O)n2ccc(/C=C/C(=O)NO)c2)cc1 [resminostat, Resminostat] as the compound, how does the “inhibition of HDAC activity” value [1] read?
Answer: inhibits the activity

Question: And the “growth factors released by platelets or secreted by HCC cells” value [2]?
Answer: not consistantly affected

Question: What about the EC50 (MDAMB468; Homo sapiens, MDA-MB-468, 72 h, log of EC50, negative, read-out: log(EC50) (converted)) of the same compound?
Answer: 2.29 µM

Question: And the EC50 (MDAMB468; Homo sapiens, MDA-MB-468, 72 h, read-out: EC50)?
Answer: 2.3 µM

Question: And the EC50 (MDAMB468; 72 h, read-out: EC50)?
Answer: 2.3 µM

Question: And the EC50 (MCF7; Homo sapiens, MCF7, 72 h, log of EC50, negative, read-out: log(EC50) (converted))?
Answer: 1.7 µM

Question: What about the EC50 (MCF7; Homo sapiens, MCF7, 72 h, read-out: EC50) of the same compound?
Answer: 1.69 µM

Question: What about the EC50 (MCF7; 72 h, read-out: EC50) of the same compound?
Answer: 1.69 µM

Question: And the EC50 (MDAMB436; Homo sapiens, MDA-MB-436, 72 h, log of EC50, negative, read-out: log(EC50) (converted))?
Answer: 7.08 µM

Question: And the EC50 (MDAMB436; Homo sapiens, MDA-MB-436, 72 h, read-out: EC50)?
Answer: 7.15 µM

Question: What about the EC50 (MDAMB436; 72 h, read-out: EC50) of the same compound?
Answer: 7.15 µM

Question: What about the EC50 (MDAMB435; Homo sapiens, MDA-MB-435, 72 h, log of EC50, negative, read-out: log(EC50) (converted)) of the same compound?
Answer: 2.09 µM

Question: And the EC50 (MDAMB435; Homo sapiens, MDA-MB-435, 72 h, read-out: EC50)?
Answer: 2.11 µM

Question: What about the EC50 (MDAMB435; 72 h, read-out: EC50) of the same compound?
Answer: 2.11 µM

Question: And the EC50 (IMR90; [3])?
Answer: 11 µM

Question: What about the EC50 (IMR90; read-out: EC50) of the same compound?
Answer: 10.9 µM

Question: What about the EC50 (JIMT1; Homo sapiens, JIMT-1, 72 h, log of EC50, negative, read-out: log(EC50) (converted)) of the same compound?
Answer: 3.02 µM

Question: And the EC50 (JIMT1; Homo sapiens, JIMT-1, 72 h, read-out: EC50)?
Answer: 3.03 µM

Question: What about the EC50 (JIMT1; 72 h, read-out: EC50) of the same compound?
Answer: 3.03 µM

Question: And the EC50 (SKNAS; Homo sapiens, SK-N-AS, log of EC50, negative, read-out: log(EC50) (converted))?
Answer: 3.55 µM

Question: And the EC50 (SKNAS; Homo sapiens, SK-N-AS, read-out: EC50)?
Answer: 3.54 µM

Question: What about the EC50 (SKNAS; read-out: EC50) of the same compound?
Answer: 3.54 µM

Question: What about the EC50 (EFO21; 72 h, read-out: EC50) of the same compound?
Answer: 7.17 µM

Question: And the EC50 (EFO21; Homo sapiens, EFO-21, 72 h, log of EC50, negative, read-out: log(EC50) (converted))?
Answer: 7.24 µM

Question: What about the EC50 (EFO21; Homo sapiens, EFO-21, 72 h, read-out: EC50) of the same compound?
Answer: 7.17 µM

Question: And the EC50 (HT29; 72 h, read-out: EC50)?
Answer: 3 µM

Question: And the EC50 (HT29; Homo sapiens, HT-29, 72 h, log of EC50, negative, read-out: log(EC50) (converted))?
Answer: 3.02 µM

Question: And the EC50 (HT29; Homo sapiens, HT-29, 72 h, read-out: EC50)?
Answer: 3 µM

Question: What about the EC50 (SAOS2; Homo sapiens, SAOS-2, 72 h, log of EC50, negative, read-out: log(EC50) (converted)) of the same compound?
Answer: 1.91 µM

Question: What about the EC50 (SAOS2; Homo sapiens, SAOS-2, 72 h, read-out: EC50) of the same compound?
Answer: 1.89 µM

Question: And the EC50 (SAOS2; 72 h, read-out: EC50)?
Answer: 1.89 µM

Question: And the EC50 (HS729; [3])?
Answer: 3.39 µM

Question: And the EC50 (HS729; read-out: EC50)?
Answer: 3.35 µM
